“Also recorded” adds a separate entry of the source.
Assays:
[1] = test system: T-cells transduced with inducible CAR with modified FKBP12 domains; test: AP1903-inducible CD19 CAR: signalling of transduced T-cells challenged with CD19 negative or positive targets; type: cell-based
Source text: FIG. 11—AP1903 homodimerizer inducible CAR. (a) AP1903 homodimerizer inducible CAR was constructed by using modified FKBP12 domains to constitute the heterodimerization motifs for both the antigen recognition component and the signalling component. The antigen recognition component recognizes CD19. (b) T-cells expressing this CAR along with non-transduced T-cells were stained with anti-Fc which recognizes the CAR spacer. The transduced T-cells expressed the CAR well. (c) Transduced T-cells were next challenged with increasing concentration of CID dimerizer AP1903 and challenged with either CD19 negative or CD19 positive target cells.
AP1903 is a synthetic chemical inducer of dimerization which binds to two mutated FKB12 domains (Clackson et al (1998). Proc. Natl. Acad. Sci. U.S.A 95, 10437-10442). An inducible CAR was developed based on this system, using the modified FKBP12 domains to constitute the heterodimerization domain of both the antigen recognition component and signalling component in the framework as described in Example 1 with the antigen recognition domain and the signalling domain co-expressed with a FMD-2A like sequence (FIG. 11a and SEQ ID No. 24). The FKBP12 domains were codon-wobbled to prevent homologous recombination. T-cells were transduced with this construct and challenged with target cells which were CD19 negative or positive.

[2] = target: FKBP-like binding domains with a F36V mutation (Homo sapiens, UniProt P62942, F37V); conditions: cells engineered to express FKBP-like binding domain fusion proteins; cited from earlier work
[3] = test system: T-cells transduced with split CD19 CAR with EcR and RXR heterodimerization motifs; test: RSL1-inducible CD19 CAR: IL-2 release of transduced T-cells challenged with CD19 negative or positive targets; type: cell-based; conditions: CD19 negative or CD19 positive target cells; increasing concentration of RSL1
Source text: FIG. 10—RSL1 inducible CAR (a) an RSL1 inducible CAR was constructed by using retinoic acid receptor domains and ecodysone receptor domains to constitute the heterodimerization motifs for the antigen recognition component and the signalling component respectively. The antigen recognition component recognizes CD19. (b) T-cells expressing this CAR along with non-transduced T-cells were stained with anti-Fc which recognizes the CAR spacer. The transduced T-cells expressed the CAR well. (c) Transduced T-cells were next challenged with increasing concentration of RSL1 and challenged with either CD19 negative or CD19 positive target cells.
Signaling through the signaling component may be determined by a variety of methods known in the art. […] Functional readouts, such as clonal expansion of T cells, upregulation of activation markers on the cell surface, differentiation into effector cells and induction of cytotoxicity or cytokine secretion may also be utilised. As an illustration, in the present examples the inventors determined levels of interleukin-2 (IL-2) produced by T-cells expressing a receptor component and signalling component of the CAR signalling system according to the present invention upon binding of antigen to the receptor component in the presence of varying concentrations of CID. […]

FKBP-like binding domains with a F36V mutation, sequence (P62942 2-108 F37V): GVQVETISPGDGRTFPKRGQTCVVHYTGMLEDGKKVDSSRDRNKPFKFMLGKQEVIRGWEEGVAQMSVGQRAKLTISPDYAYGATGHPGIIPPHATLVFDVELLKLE

## CC[C@H](C(=O)N1CCCC[C@H]1C(=O)O[C@H](CCc1ccc(OC)c(OC)c1)c1cccc(OCC(=O)NCCNC(=O)COc2cccc([C@@H](CCc3ccc(OC)c(OC)c3)OC(=O)[C@@H]3CCCCN3C(=O)[C@@H](CC)c3cc(OC)c(OC)c(OC)c3)c2)c1)c1cc(OC)c(OC)c(OC)c1 [AP1903]
[1]; CD19 negative or CD19 positive target cells, increasing concentration of AP1903
  Response / signalling of AP1903-inducible CAR T-cells: responded only to CD19 positive targets in the presence of AP1903; also recorded: signal only in the presence of CID
[1]; very high concentration of dimerizer, CD19 positive targets
  Signalling of AP1903-inducible CAR T-cells at very high dimerizer concentration: signalling was inhibited; also recorded: signalling is reduced
[2]
  Selectivity of dimerization: FKBP-like (F36V) domains versus endogenous FKBP: no interactions involving endogenous FKBP

## CCc1c(OC)cccc1C(=O)NN(C(=O)c1cc(C)cc(C)c1)C(C)(C)C [RSL1, N-(2-ethyl-3-methoxybenzoyl)-N′-(3,5-dimethylbenzoyl)-N′-tert-butylhydrazine]
[3]
  IL-2 release / signalling of RSL1-inducible CAR T-cells: Only CAR T-cells challenged with SupT1 targets in the presence of RSL1 released IL-2; also recorded: signal only in the presence of RSL1

Source: patent publication US10588967B2, “Chimeric antigen receptor (CAR) signalling system” (UCL BUSINESS PLC, priority 2014, dated 2020)
